Laboratory results from patent publication US4868195A, “Novel enolamides, pharmaceutical compositions and methods of use thereof for activity as modulators of the arachidonic acid cascade” (Warner-Lambert Company, priority 1988, dated 1989).
Where “and” joins values, the source holds several entries; their conditions need not be identical. Equal entries are not always repeated.

Molecular target: T1, leukotriene receptor (guinea pig lung membranes) (Cavia porcellus, UniProt Q2NNR5)
T1 construct: 20 mg original tissue wet weight of guinea pig lung; tissue Kuiper Rabbit Farm, Gary, IN (animals); host or cells: guinea pig lung, crude membranes
T1 sequence (Q2NNR5 1-340): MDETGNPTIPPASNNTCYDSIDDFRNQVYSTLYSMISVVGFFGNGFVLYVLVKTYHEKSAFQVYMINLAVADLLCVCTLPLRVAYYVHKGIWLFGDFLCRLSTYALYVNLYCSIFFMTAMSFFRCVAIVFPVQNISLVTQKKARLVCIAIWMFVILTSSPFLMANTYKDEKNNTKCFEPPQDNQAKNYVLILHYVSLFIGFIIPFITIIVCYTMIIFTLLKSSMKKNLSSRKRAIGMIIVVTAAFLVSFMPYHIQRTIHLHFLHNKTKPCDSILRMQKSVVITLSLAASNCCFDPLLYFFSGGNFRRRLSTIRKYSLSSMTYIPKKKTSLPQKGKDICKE
Assay: Binding of ^3 H-Leukotriene D4 to Guinea Pig Lung Membranes (RBL)
Conditions: 0.2 nM ^3 H-LTD4, 60 min, 25° C.; read-out: Concentration (M) for 50.0 % Inhibition, IC (RBL)
Protocol: Additionally, the activity, of the compounds having the Formula I of the present invention is determined by the well known leukotriene receptor binding assay that is described by R. F. Bruns, W. J. Thomsen and T. A. Pugsley in Life Sciences, 33, 645 (1983) or the Herxheimer in vivo antiallergy test described in H. Herxheimer, J. Physiol. (London), Vol. 177, p. 251 (1952).
Binding of ^3 H-Leukotriene D4 to Guinea Pig Lung Membranes (RBL)
[14,15-^3 H]leukotriene D4 (^3 H-LTD4) (25 Ci/mmol and 40 Ci/mmol) is purchased from New England Nuclear. Unlabeled LTC4 is a gift of Ono Pharmaceuticals (Japan). LTC4, LTD4, and LTE4 are purchased as methyl esters from Paesel GmbH (Frankfurt, W. Germany). Concentrations of the Paesel leukotrienes are calculated from their absorbance at 280 nm. Leukotriene esters are saponified overnight under N2 in 3.3% potassium carbonate at room temperature. Tritiated leukotrienes are stored as received from New England Nuclear at -20° C. Ono LTC4 (5 μg/ml) is stored at -60° C. in phosphate buffer pH 6.8. Saponified Paesel leukotrienes are stored at -60° C. in 3.3% potassium carbonate (pH 9.0-9.5). Aliquots of leukotrienes are taken from stock solutions immediately after thawing, after which the stock solutions are immediately refrozen. 2-Amino-2-(hydroxymethyl)-1,3-propanediol (Tris) is Sigma pH 7.7 pre-set crystals, and dimethylsulfoxide is Aldrich Gold Label.
Preparation of crude lung membranes
Two pairs of lungs (1.3 g) from freshly sacrificed 300 g male guinea pigs (older animals gave substantially lower binding) from Kuiper Rabbit Farm, Gary, IN are disrupted with a Polytron PT 10 (setting 4) for 30 seconds in 20 ml ice-cold 50 mM Tris adjusted with HCl to pH 7.7 at 25° C. (Tris buffer), filtered through a single layer of gauze to remove connective tissue, and centrifuged at 50,000 xg for ten min. The pellet is resuspended by homogenization with a Polytron in 20 ml Tris buffer, centrifuged at 50,000 xg for ten min., resuspended, incubated at 37° C. for 30 minutes, and centrifuged again. The final pellet is resuspended in Tris buffer and either used fresh or stored at -70° C.
All incubations are in triplicate for 60 minutes at 25° C. in 12×75 mm polystyrene tubes containing 1 ml Tris buffer with 20 mg original tissue wet weight of guinea pig lung nmembranes, 0.2 nM ^3 H-LTD4 (6,000-11,000 cpm), 10 mM MgCl2, and 1% dimethylsulfoxide Leukotrienes are diluted in Tris buffer. All other test compounds dissolved at 10 mM in dimethylsulfoxide on the same day as the experiment, and diluted in dimethylsulfoxide to 100× the final incubation concentration. Control incubations receive an equal volume (10 μl) of dimethylsulfoxide; the resulting concentration of dimethylsulfoxide had no effect on binding. ^3 H-LTD4 is diluted to 2 nM in Tris buffer. The membrane suspension (20 mg/0.89 ml) contains sufficient MgCl2 to give 10 mM final concentration in the incubation. […] All additions are performed at 0° C. Immediately after the last addition, the incubation is initiated by agitating the rack of tubes on a vortex mixer and warming to 25° C. in a water bath. Tubes are vortexed at least once more during the incubation to ensure that the membranes remained suspended. Incubations are terminated after 60 minutes by filtering under reduced pressure through 25 mm Whatman GF/B filters followed by rapid washing three times with 4 ml of ice-cold Tris buffer. Filters are added to scintillation vials with 8 ml Formula 947 (New England Nuclear), left overnight, shaken, and the radioactivity counted in a scintillation counter (efficiency 40%). Nonspecific binding, defined as binding of ^3 H-LTD4 in the presence of 100 nM LTC4, is 300-500 cpm for all lots of ^3 H-LTD4. Binding to the filters in the absence of tissue is about 100 cpm, and is not affected by unlabeled LTC4. Specific binding, defined as total binding minus nonspecific binding, varied considerably from lot to lot of ^3 H-LTD4. […]

Question: For `O=C(Nc1ccc(C=Cc2ccc(Cl)c(Cl)c2)cc1)C1=C(O)c2ccccc2S(=O)(=O)C1` [Example 74, 2H-1-Benzothiopyran-3-carboxamide, N-[4-[2-(3,4-dichlorophenyl)ethenyl]phenyl]-4-hydroxy-, 1,1-dioxide], which IC50 is on record?
Answer: Its IC50 is 5.27e-06 M.

Question: For `CCCCOc1ccc(CCc2ccc(NC(=O)C3CS(=O)(=O)c4ccccc4C3=O)cc2)cc1` (centres unmarked) [Example 48], which IC50 is on record?
Answer: The IC50 was 6.48e-06 M and 1.19e-05 M and 2e-05 M and 1.29e-05 M.

Question: `COc1ccc(CCc2ccc(NC(=O)C3=C(O)c4ccccc4S(=O)(=O)C3)cc2)cc1OC` [Example 18, N-[4-[2-(3,4-Dimethoxyphenyl)ethyl]phenyl]-4-hydroxy-2H-1-benzothiopyran-3-carboxamide, 1,1-dioxide] was tested. Which IC50 did it give?
Answer: Its IC50 is 7.19e-05 M.

Question: Which IC50 does the source give for `Cc1ccc(CCc2ccc(NC(=O)C3CS(=O)(=O)c4ccccc4C3=O)cc2)cc1C` (centres unmarked) [Example 53, N-[4-[2-(3,4-Dimethylphenyl)ethyl]phenyl]-3,4-dihydro-4-oxo-2H-1-benzothiopyran-3-carboxamide, 1,1-dioxide] here?
Answer: Its IC50 is 3.54e-06 M.

Question: How did the IC50 turn out when `O=C(Nc1ccccc1Cc1ccc(Cl)c(Cl)c1)C1=C(O)c2ccccc2S(=O)(=O)C1` [Example 81, 2H-1-Benzothiopyran-3-carboxamide, N-[2-[(3,4-dichlorophenyl)methyl]phenyl]-4-hydroxy, 1,1-dioxide] was run?
Answer: The IC50 was 1.01e-05 M.

Question: With `COc1ccc(CCc2ccc(NC(=O)C3CS(=O)(=O)c4ccccc4C3=O)cc2)cc1` (centres unmarked) [Example 41] as the compound, how does the IC50 read?
Answer: Its IC50 is 1.26e-05 M.

Question: For `COc1cc(CCc2ccc(NC(=O)C(=O)c3sc4ccccc4c3O)cc2)ccc1O` [Example 142, Benzo[b]thiophene-2-acetamide, 3-hydroxy-N-[4-[2-(4-hydroxy-3-methoxyphenyl)ethyl]phenyl]-α-oxo-], which IC50 is on record?
Answer: Its IC50 is 6.1e-05 M.

Question: `O=C(Nc1ccc(CCCc2ccc(Cl)c(Cl)c2)cc1)C1=C(O)c2ccccc2S(=O)(=O)C1` [Example 79, 2H-1-Benzothiopyran-3-carboxamide, N-[4-[3-(3,4-dichlorphenyl)propyl]phenyl]-4-hydroxy-, 1,1-dioxide] was tested. Which IC50 did it give?
Answer: The IC50 was 4.13e-07 M and 5.3e-07 M.

Question: Which IC50 does the source give for `COc1ccc(CCc2ccc(NC(=O)c3sc4ccccc4c3O)cc2)cc1OC` [Example 143, Benzo[b]thiophene-2-carboxamide, N-[4-[2-(3,4-dimethoxphenyl)ethyl]phenyl]-3-hydroxy] here?
Answer: The IC50 was 1.21e-05 M.

Question: Which IC50 does the source give for `O=C(Nc1ccc(CCc2ccccc2)cc1)C1CS(=O)(=O)c2ccccc2C1=O` (centres unmarked) [Example 16, 3,4-Dihydro-4-oxo-N-[(4-(2-phenyl)ethyl]-phenyl]-2H-1-benzothiopyran-3-carboxamide, 1,1-dioxide] here?
Answer: Its IC50 is 1.28e-05 M.

Question: For `COc1ccc(CCc2ccc(NC(=O)C3CS(=O)(=O)c4ccccc4C3=O)cc2)cc1O` (centres unmarked) [Example 27, 3,4-Dihydro-N-[4-[2-(3-hydroxy-4-methoxyphenyl)ethyl]phenyl]-4-oxo-2H-1-benzothiopyran-3-carboxamide, 1,1-dioxide], which IC50 is on record?
Answer: Its IC50 is 0.000106 M and 0.00012 M.

Question: How did the IC50 turn out when `O=C(Nc1cccc(CCc2ccc(Cl)c(Cl)c2)c1)c1sc2ccccc2c1O` [Example 146, Benzo[b]thiophene-2-carboxamide, N-[3-[2-(3,4-dichlorophenyl)ethyl]phenyl]-3-hydroxy] was run?
Answer: Its IC50 is 1.02e-06 M.

Question: For `O=C(Nc1ccc(CCc2ccc3ccccc3c2)cc1)C1=C(O)c2ccccc2S(=O)(=O)C1` [Example 51, 4-Hydroxy-N-[4-[2-(2-naphthalenyl)ethyl]phenyl]-2H-1-benzothiopyran-3-carboxamide, 1,1-dioxide], which IC50 is on record?
Answer: Its IC50 is 3.84e-06 M.

Question: How did the IC50 turn out when `O=C(Nc1ccc(CCc2cccc3ccccc23)cc1)C1=C(O)c2ccccc2S(=O)(=O)C1` [Example 73, 2H-1-Benzothiopyran-3-carboxamide, 4-hydroxy-N-[4-[2-(1-naphthalenyl)ethyl]phenyl], 1,1-dioxide] was run?
Answer: Its IC50 is 3.84e-06 M.

Question: With `O=C(Nc1ccccc1CCCc1ccc(Cl)c(Cl)c1)C1=C(O)c2ccccc2S(=O)(=O)C1` [Example 80, 2H-1-Benzothiopyran-3-carboxamide, N-[2-[3-(3,4-dichlorophenyl)propyl]phenyl]-4-hydroxy-, 1,1-dioxide] as the compound, how does the IC50 read?
Answer: Its IC50 is 1.27e-05 M.

Question: How did the IC50 turn out when `O=C(Nc1ccc(CCc2ccc(Cl)cc2)cc1)C1CS(=O)(=O)c2ccccc2C1=O` (centres unmarked) [Example 54, N-[4-[2-(4-Chlorophenyl)ethyl]phenyl]-3,4-dihydro-4-oxo-2H-1-benzothiopyran-3-carboxamide, 1,1-dioxide] was run?
Answer: Its IC50 is 1.09e-05 M.

Question: With `CCCCCCCCCCc1ccc(NC(=O)C2CS(=O)(=O)c3ccccc3C2=O)cc1` (centres unmarked) [Example 60, N-(4-Decylphenyl)-3,4-dihydro-4-oxo-2H-1-benzoothiopyran-3-carboxamide, 1,1-dioxide] as the compound, how does the IC50 read?
Answer: The IC50 was 1.21e-05 M.

Question: How did the IC50 turn out when `O=C(Nc1cccc(CCc2ccc(Cl)c(Cl)c2)c1)C1=C(O)c2ccccc2S(=O)(=O)C1` [Example 76, 2H-1-Benzothiopyran-3-carboxamide, N-[3-[2-(3,4-dichlorophenyl)ethyl]phenyl]-4-hydroxy-, 1,1-dioxide] was run?
Answer: Its IC50 is 3e-06 M.

Question: `O=C(Nc1ccc(CCc2ccc(-c3ccccc3)cc2)cc1)C1CS(=O)(=O)c2ccccc2C1=O` (centres unmarked) [Example 46, N-[4-[2-([1,1'-biphenyl]-4-yl)ethyl]phenyl]-3,4-dihydro-4-oxo-2H-1-benzothiopyran-3-carboxamide, 1,1-dioxide] was tested. Which IC50 did it give?
Answer: The IC50 was 2.15e-05 M and 1.87e-05 M.

Question: `O=C(Nc1ccc(CCc2c(F)c(F)c(F)c(F)c2F)cc1)C1=C(O)c2ccccc2S(=O)(=O)C1` [Example 64, N-[4-[2-(2,3,4,5,6-Pentafluorophenyl)ethyl]phenyl]-4-hydroxy-2H-1-benzothiopyran-3-carboxamide, 1,1-dioxide] was tested. Which IC50 did it give?
Answer: Its IC50 is 6.11e-06 M and 9.49e-06 M and 2.82e-06 M.

Question: With `O=C(Nc1ccc(Cc2ccc(Cl)c(Cl)c2)cc1)C1=C(O)c2ccccc2S(=O)(=O)C1` [Example 78, 2H-1-Benzothiopyran-3-carboxamide, N-[4-[(3,4-dichlorophenyl)methyl]phenyl]-4-hydroxy-, 1,1-dioxide] as the compound, how does the IC50 read?
Answer: The IC50 was 4.82e-06 M.

Question: For `O=C(Nc1ccccc1CCc1ccc(Cl)c(Cl)c1)C1=C(O)c2ccccc2S(=O)(=O)C1` [Example 8, N-[2-[2-(3,4-Dichlorophenyl)ethyl]phenyl]-4-hydroxy-2H-1-benzothiopyran-3-carboxamide, 1,1-dioxide], which IC50 is on record?
Answer: The IC50 was 4.21e-06 M.

Question: Which IC50 does the source give for `O=C(Nc1ccc(C=Cc2ccc([N+](=O)[O-])cc2)cc1)C1CS(=O)(=O)c2ccccc2C1=O` (centres unmarked) [Example 67, 2H-1-Benzothiopyran-3-carboxamide, 3,4-dihydro-N-[4-[2-(4-nitrophenyl)ethenyl]phenyl]-4-oxo-, 1,1-dixide] here?
Answer: Its IC50 is 6.56e-06 M and 1.04e-05 M.
